Values quoted from earlier work, collected in article PMC11785675, “Phase Ib study of the oral PI3Kδ inhibitor linperlisib in patients with advanced solid tumors” (International Journal of Clinical Oncology, 2024).

Assays:
[1] = test system: thymic epithelial tumors cells carrying mutant PI3K subunits; parameters: method as in PMID 27117832; conditions: in vitro; cited from earlier work
breast cancer = test system: breast cancer; parameters: method as in PMID 24919154, PMID 33093155; conditions: cited from earlier work
HCC cells = test system: HCC cells; parameters: method as in PMID 24919154, PMID 33093155; conditions: cited from earlier work
[2] = test system: advanced or refractory solid tumors; parameters: method as in PMID 27915408; conditions: 10 Japanese patients, cited from earlier work
advanced solid tumors [3] = test system: advanced solid tumors; parameters: method as in PMID 27672108; conditions: 48 patients with advanced solid tumors, cited from earlier work
patients [4] = test system: patients; parameters: method as in PMID 27672108; conditions: cited from earlier work
patients [5] = test system: patients; parameters: method as in PMID 31619463; conditions: cited from earlier work
[6] = comparison drugs; no reference given; cited from earlier work
patients [7] = conditions: 150 mg twice daily; 12 patients; cited from earlier work
advanced solid tumors [8] = test system: advanced solid tumors; parameters: method as in PMID 35288468; conditions: parsaclisib monotherapy; five patients; cited from earlier work

CS(=O)(=O)N1CCN(Cc2cc3nc(-c4cccc5[nH]ncc45)nc(N4CCOCC4)c3s2)CC1 [GDC-0941]
Antitumor activity [1]: in vitro antitumor activity

Fc1ccc2[nH]ccc2c1-c1nc(N2CCOCC2)c2sc(CN3CCN(CC4CC4)CC3)cc2n1 [PI-3065]
Growth and metastasis of breast cancer (breast cancer): significantly inhibit growth and metastasis of breast cancer
Apoptosis of HCC cells (HCC cells): directly induce apoptosis of HCC cells

COc1c(OCCCN2CCOCC2)ccc2c1N=C(NC(=O)c1cnc(N)nc1)N1CCN=C21 [copanlisib]
3-month PFS rate ([2]; 95% CI 1–40): 12%
Median PFS ([2]; 95% CI 21–82): 52 days
CR or PR [2]: no patients achieved a CR or PR
DCR [2]: 40.0%
Patients achieving stable disease (advanced solid tumors [3]): 15 patients
Patients achieving CR (advanced solid tumors [3]; endometrial carcinoma with PIK3CA and PTEN mutations): one
Patients with PR (advanced solid tumors [3]; metastatic breast cancer): two
Patients with AEs possibly related to copanlisib (patients [4]; 49 patients): 86%
Drug-related grade 3 AE hyperglycemia (patients [4]): 30%
Drug-related grade 3 AE hypertension (patients [4]): 14%
Drug-related grade 3 AE rash (patients [4]): 7%
TRAE hyperglycemia, all grades (patients [4]): 63%
TRAE hypertension, all grades (patients [4]): 21%
TRAE nausea, all grades (patients [4]): 37%
TEAE fatigue, all grade (patients [5]): 46.0%
TEAE hyperglycemia, grade 3 (patients [5]): 22.2%
TEAE hyperglycemia, grade 4 (patients [5]): 1.6%
TEAE hypertension, all grade (patients [5]): 41.3%
TEAE hypertension, grade 3 (patients [5]): 30.2%
TEAE hypertension, grade 4 (patients [5]): 0
TEAE hypophosphatemia, grade 3 (patients [5]): 11.1%
TEAE hypophosphatemia, grade 4 (patients [5]): 0
TEAE lymphocyte count decreased, grade 3 (patients [5]): 7.9%
TEAE lymphocyte count decreased, grade 4 (patients [5]): 4.8%

C[C@H](Nc1ncnc2[nH]cnc12)c1cc2cccc(Cl)c2c(=O)n1-c1ccccc1 [duvelisib, reference compound]
Route of excretion [6]: predominantly excreted via the intestines

CC[C@H](Nc1ncnc2[nH]cnc12)c1nc2cccc(F)c2c(=O)n1-c1ccccc1 [idelalisib]
Grade ≥ 3 TEAE increased ALT (patients [7]): 25%
Grade ≥ 3 TEAE increased AST (patients [7]): 41.7%
Grade ≥ 3 TEAE maculopapular rash (patients [7]): 25%
TEAE increased ALT (patients [7]): 33.3%
TEAE increased AST (patients [7]): 41.7%
TEAE maculopapular rash (patients [7]): 25%
TEAE pyrexia (patients [7]): 50%

CCOc1c([C@H](C)n2nc(C)c3c(N)ncnc32)cc(Cl)c(F)c1[C@@H]1CNC(=O)C1 [parsaclisib]
CR or PR (advanced solid tumors [8]): none achieved a CR or PR
